Measurements taken from ChEMBL document CHEMBL2073972, “Contribution of OATP2 (OATP1B1) and OATP8 (OATP1B3) to the hepatic uptake of pitavastatin in humans” (J Pharmacol Exp Ther, 2004).

Legend:
[1] = molecular target: T1, Solute carrier organic anion transporter family member 1B3 (Homo sapiens, UniProt Q9NPD5); assay: TP_TRANSPORTER: cell accumulation in OATP8-expressing HEK293 cells; assay type: functional, cell-based
T1 sequence (Q9NPD5 whole entry): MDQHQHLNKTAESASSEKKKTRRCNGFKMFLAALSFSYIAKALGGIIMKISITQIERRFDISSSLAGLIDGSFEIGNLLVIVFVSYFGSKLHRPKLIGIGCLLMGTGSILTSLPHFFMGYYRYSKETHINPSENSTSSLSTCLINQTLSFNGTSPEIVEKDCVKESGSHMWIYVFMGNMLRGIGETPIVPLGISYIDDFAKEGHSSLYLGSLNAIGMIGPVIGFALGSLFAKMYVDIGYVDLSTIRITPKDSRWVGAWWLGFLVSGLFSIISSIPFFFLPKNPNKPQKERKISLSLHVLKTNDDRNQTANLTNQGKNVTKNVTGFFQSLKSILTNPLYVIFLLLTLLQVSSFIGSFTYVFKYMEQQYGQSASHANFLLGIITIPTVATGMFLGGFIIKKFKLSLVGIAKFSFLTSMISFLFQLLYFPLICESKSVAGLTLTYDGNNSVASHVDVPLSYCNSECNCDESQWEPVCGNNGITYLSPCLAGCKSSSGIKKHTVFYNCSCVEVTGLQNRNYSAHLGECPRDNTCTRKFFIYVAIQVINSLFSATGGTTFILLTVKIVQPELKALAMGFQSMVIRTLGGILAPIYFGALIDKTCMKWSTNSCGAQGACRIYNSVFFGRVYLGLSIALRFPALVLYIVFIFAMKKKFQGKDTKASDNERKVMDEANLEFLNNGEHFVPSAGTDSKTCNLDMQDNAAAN

[2] = molecular target: T2, Solute carrier organic anion transporter family member 1B1 (Homo sapiens, UniProt Q9Y6L6); assay: TP_TRANSPORTER: cell accumulation in OATP2-expressing HEK293 cells; assay type: functional, cell-based
T2 sequence (Q9Y6L6 whole entry): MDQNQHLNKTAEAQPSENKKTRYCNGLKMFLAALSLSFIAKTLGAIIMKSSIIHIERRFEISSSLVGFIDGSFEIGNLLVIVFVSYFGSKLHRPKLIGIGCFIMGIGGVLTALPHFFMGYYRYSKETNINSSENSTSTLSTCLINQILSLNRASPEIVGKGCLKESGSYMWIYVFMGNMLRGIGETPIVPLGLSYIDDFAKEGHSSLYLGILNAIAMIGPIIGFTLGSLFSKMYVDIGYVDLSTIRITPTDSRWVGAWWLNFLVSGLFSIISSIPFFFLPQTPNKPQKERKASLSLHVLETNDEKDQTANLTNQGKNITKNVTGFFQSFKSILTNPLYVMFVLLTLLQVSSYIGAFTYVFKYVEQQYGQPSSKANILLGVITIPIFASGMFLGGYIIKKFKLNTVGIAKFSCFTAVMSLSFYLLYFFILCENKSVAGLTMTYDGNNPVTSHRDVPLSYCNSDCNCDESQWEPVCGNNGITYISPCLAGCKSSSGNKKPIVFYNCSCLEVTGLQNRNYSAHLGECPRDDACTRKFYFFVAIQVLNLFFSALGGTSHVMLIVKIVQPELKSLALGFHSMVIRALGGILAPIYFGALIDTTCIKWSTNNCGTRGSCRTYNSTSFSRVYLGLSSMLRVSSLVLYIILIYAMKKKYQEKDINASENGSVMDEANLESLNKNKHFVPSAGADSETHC

| Compound | Activity [1] | Activity [2] |
| --- | --- | --- |
| C[C@]12CC[C@@H]3c4ccc(O)cc4CC[C@H]3[C@@H]1CC[C@@H]2O[C@@H]1O[C@H](C(=O)O)[C@@H](O)[C@H](O)[C@H]1O [ESTRADIOL 17B GLUCURONIDE] | substrate [] | substrate [] |
| C[C@]12CC[C@@H]3c4ccc(OS(=O)(=O)O)cc4CC[C@H]3[C@@H]1CCC2=O [ESTRONE SULFURIC ACID] | substrate [] | substrate [] |
| O=C(O)C[C@H](O)C[C@H](O)/C=C/c1c(C2CC2)nc2ccccc2c1-c1ccc(F)cc1 [PITAVASTATIN] | substrate [] | substrate [] |
| CSCC[C@H](NC(=O)[C@H](Cc1ccc(OS(=O)(=O)O)cc1)NC(=O)[C@@H](N)CC(=O)O)C(=O)NCC(=O)N[C@@H](Cc1c[nH]c2ccccc12)C(=O)N[C@@H](CCSC)C(=O)N[C@@H](CC(=O)O)C(=O)N[C@@H](Cc1ccccc1)C(N)=O [SINCALIDE] | substrate [] | substrate [] |
